According to PubChem BioAssay (NCI):
Several values for one entry are separate records, joined by “and”; a condition that tells them apart may be missing. Equal values may be shown once.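 Each compound was tested at five concentrations against cells in 96-well plates for 48 hours. Here, GI50 denotes the concentration required for 50% inhibition of growth. At the TGI there is no net growth.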

Experiments:
Assay in all cases: NCI-60 cell line screen, 48 h
EKVX NSCLC = tested on: EKVX NSCLC
HCT-116 colon = tested on: HCT-116 colon
HOP-62 NSCLC = tested on: HOP-62 NSCLC
MDA-MB-435 = tested on: MDA-MB-435
OVCAR-4 ovarian = tested on: OVCAR-4 ovarian
OVCAR-5 ovarian = tested on: OVCAR-5 ovarian
OVCAR-8 ovarian = tested on: OVCAR-8 ovarian
RPMI-8226 leukemia = tested on: RPMI-8226 leukemia
SF-295 CNS = tested on: SF-295 CNS
T-47D breast = tested on: T-47D breast

SMILES | GI50 (EKVX NSCLC) | TGI (EKVX NSCLC) | GI50 (HCT-116 colon) | TGI (HCT-116 colon) | GI50 (HOP-62 NSCLC) | TGI (HOP-62 NSCLC) | GI50 (MDA-MB-435) | TGI (MDA-MB-435) | GI50 (OVCAR-4 ovarian) | TGI (OVCAR-4 ovarian) | GI50 (OVCAR-5 ovarian) | TGI (OVCAR-5 ovarian) | GI50 (OVCAR-8 ovarian) | TGI (OVCAR-8 ovarian) | GI50 (RPMI-8226 leukemia) | TGI (RPMI-8226 leukemia) | GI50 (SF-295 CNS) | GI50 (T-47D breast) | TGI (T-47D breast) | TGI (SF-295 CNS)
COc1cccc(/C=C/C(=O)c2cccc(Nc3nc(Nc4ccccc4)nc(Nc4ccccc4)n3)c2)c1 | > 20.2 µM | > 78.6 µM | 1.42 µM | 2.93 µM | > 46.9 µM | > 78.1 µM | 14.5 µM | > 59.7 µM | 19.5 µM | > 100 µM | 26.8 µM | > 86.3 µM | 9.91 µM | > 100 µM | 1.78 µM | 6.49 µM | 1.96 µM | 6.15 µM | > 79.8 µM | –
COc1ccc2nc3cc([N+](=O)[O-])ccc3c(NCCCCCN(C)C)c2c1 | 1.59 µM | 7.27 µM | 0.0453 µM | 1.18 µM | 0.0536 µM | 0.301 µM | 0.271 µM | 0.972 µM | 0.14 µM | 0.546 µM | 0.497 µM | 3.92 µM | 0.214 µM | 1.32 µM | 0.0741 µM | 1.25 µM | 0.353 µM | 0.307 µM | 1.73 µM | 2.52 µM
COc1cc(Cl)cc(-c2nn(C(=O)NCCN3CCOCC3)cc2-c2ccncc2)c1 | 5.57 µM | 79.9 µM | 4.13 µM | 51.2 µM | 6.03 µM | 63.6 µM | 0.604 µM | 3.61 µM | 12.6 µM | > 100 µM | 37.8 µM | > 100 µM | 7.61 µM | > 100 µM | 7.38 µM | > 100 µM | 2.75 µM | 5.78 µM | > 100 µM | 13.5 µM
COc1c(CCC[P+](c2ccccc2)(c2ccccc2)c2ccccc2)cc2c(c1OC)OCO2 | 3.88 µM | 51.1 µM | 1.2 µM | > 100 µM | 3.42 µM | 14.5 µM | 0.462 µM | 5.03 µM | 1.59 µM | 12.5 µM | 2.74 µM | 81.2 µM | 2.66 µM | > 100 µM | 0.233 µM | 1.72 µM | 2.62 µM | 0.419 µM | 35.3 µM | 8.38 µM
CC1SC(c2c(Cl)cccc2Cl)N(NC(=O)c2[nH]c3ccc(F)cc3c2-c2ccccc2)C1=O (stereo unspecified) | 2.33 µM | 10.8 µM | 1.71 µM | 3.08 µM | 1.79 µM | 3.33 µM | 5.01 µM | > 100 µM | 1.69 µM | 3.4 µM | 3.06 µM | 21.3 µM | 1.7 µM | 3.39 µM | 5.59 µM | > 100 µM | 1.9 µM | 2.61 µM | 14 µM | 3.71 µM
COc1cc(C2c3cc4c(cc3[C@@H](Nc3ccc(C#N)cc3)C3COC(=O)[C@H]23)OCO4)cc(OC)c1O (stereo partly specified) | 2.21 µM and 3.71 µM | 50 µM and 12.8 µM and > 100 µM | 0.452 µM and 0.389 µM | 10.8 µM and 2.45 µM and 11.4 µM | 0.194 µM and 0.234 µM | 2.82 µM and 0.59 µM and 2.57 µM | 1.98 µM | 50 µM and > 100 µM | – | 19.2 µM | 2.96 µM and 3.3 µM | 31.7 µM and 59.9 µM and > 100 µM | 1.51 µM | – | 0.869 µM and 1.33 µM | 1.42 µM and 3.87 µM and 4.73 µM | 0.336 µM | 0.46 µM | – | 8.74 µM and 3.65 µM
